Test results from US9567325B2, “Carboxamide compounds and their use as calpain inhibitors” (AbbVie Deutschland GmbH & Co. KG, priority 2009, dated 2017).

Columns and labels:
[1] = biological target: T1, cathepsin K activated from recombinant human procathepsin K (Homo sapiens, UniProt P43235); assay: Cathepsin K enzyme inhibition in vitro, kinetic fluorescence assay (selectivity vs calpain); format: biochemical; conditions: ratio of Ki values; Z-Gly-Pro-Arg-AMC substrate, pH 6.0
T1 construct: purchased Calbiochem 342001; host or cells: E. coli
T1 sequence (P43235 115-329): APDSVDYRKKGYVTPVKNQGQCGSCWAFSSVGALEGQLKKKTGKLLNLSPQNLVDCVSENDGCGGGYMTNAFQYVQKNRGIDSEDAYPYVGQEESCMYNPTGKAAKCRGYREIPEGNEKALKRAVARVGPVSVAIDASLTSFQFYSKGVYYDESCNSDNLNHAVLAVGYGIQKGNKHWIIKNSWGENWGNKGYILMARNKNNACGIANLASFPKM
Protocol: (§1) The following solutions and buffers were employed: • HBS (for 40 ml): 800 μl 1M HEPES; 2.16 ml 100 mM KCl; 4.8 ml 1M NaCl; 3.59 ml 5% glucose; 60 μl 1M MgSO4; 400 μl 100 mM Na pyruvate, 28.19 ml water; pH 7.2-7.5. • lysis buffer (for 20 ml): 400 μl 1M Tris pH 8.2; 2.74 ml 1M NaCl; 520 μl 0.5M EDTA; 2 ml 10% triton X-100; 0.8 ml (=1:25) CompletePlus (1 tablet/2 ml H2O); 200 μl 100 mM Pefabloc; 13.34 ml water, pH 8.2. • TBST (10×) (for 11): 100 mM Tris (12.1 g); 1.5M NaCl (87 g); 1% Tween 20 (10 g), adjusted to pH 8. I Enzyme Inhibition In Vitro: • Testing for blockade of the corresponding enzymic activities was carried out by means of kinetic fluorescence assays (excitation 390 nm, emission 460 nm). • Apparent Ki values were calculated from the experimentally determined IC50 values by the Cheng-Prussoff relation assuming a reversible competitive enzyme inhibition. The Km values of the substrates used under the assay conditions indicated above were: 90 μM (Z-Phe-Arg-AMC, cathepsin B), 10 μM (Z-Gly-Pro-Arg-AMC, cathepsin K), 2 μM (Z-Phe-Arg-AMC, cathepsin L), and 30 μM (Z-Val-Val-Arg-AMC, cathepsin S). • The indicated Ki values are averages of the inhibition constants calculated on the basis of 2 to 4 independent dose-effect plots. • The following assays were used: • 1. Calpain I: • 20 nM calpain-1-isolated from human erythrocytes (Calbiochem #208713), 100 μM Suc-Leu-Tyr-AMC (Bachem #1-1355) as substrate in buffer with 62 mM imidazole, 0.3 mM CaCl2, 0.10% CHAPS, 0.05% BSA, 1 mM DTT at pH 7.3 and room temperature. • 2. Cathepsin B: • 0.25 nM cathepsin B—isolated from human liver (Calbiochem #219362), 100 μM Z-Phe-Arg-AMC (Bachem #1-1160) as substrate 50 mM MES, 2 mM EDTA, 0.05% Brij 35, 2.5 mM L-cysteine, pH 6.0, room temperature. • 3. Cathepsin K: • 3 nM cathepsin K-activated from recombinant human procathepsin K from E. coli (Calbiochem #342001), 10 μM Z-Gly-Pro-Arg-AMC (Biomol #P-142) as substrate in 50 mM MES, 2 mM EDTA, 0.05% Brij 35, 2.5 mM L-cysteine, pH 6.0, room temperature. • 4. Cathepsin L: • 1 nM cathepsin L—isolated from human liver (Calbiochem #219402), 2 μM Z-Phe-Arg-AMC (Bachem #1-1160) as substrate in 50 mM MES, 2 mM EDTA, 0.05% Brij 35, 2.5 mM L-cysteine, pH 6.0, room temperature. • 5. Cathepsin S: • 0.5 nM recombinant human cathepsin S from E. coli (Calbiochem #219343), 20 μM Z-Val-Val-Arg-AMC (Bachem #I-1540) as substrate in 50 mM MES, 2 mM EDTA, 0.05% Brij 35, 2.5 mM L-cysteine, pH 6.0, room temperature. • The results of the in vitro determination are indicated in Table 1. The following abbreviations are used in Table 1: • In the “Calpain activity” column, +++ stands for a calpain Ki (Ki(calpain)) of ≦40 nM, and ++ means: 40 nM<Ki(Calpain)≦100 nM and + means 100 nM<Ki(Calpain)≦300 nM. • The “Sel. cat. B” column indicates the Ki(cathepsin B)/Ki(calpain) ratio. In this connection, ++ means a Ki(cathepsin B)/Ki(calpain) ratio of ≧30 and + means 10≦Ki(cathepsin B)/Ki(calpain)<30. • The “Sel. cat. K” column indicates the Ki(cathepsin K)/Ki(calpain) ratio. In this connection, ++ means a Ki(cathepsin K)/Ki(calpain) ratio of ≧30 and + means 10≦Ki(cathepsin K)/Ki(calpain)<30. • The “Sel. cat. L” column indicates the Ki(cathepsin L)/Ki(calpain) ratio. In this connection, ++ means a Ki(cathepsin L)/Ki(calpain) ratio of ≧50 and + means 30≦Ki(cathepsin L)/Ki(calpain)<50. • The “Sel. cat. S” column indicates the Ki(cathepsin S)/Ki(calpain) ratio. In this connection, ++ means a Ki(cathepsin S)/Ki(calpain) ratio of ≧100 and + means 50≦Ki(cathepsin S)/Ki(calpain)<100.

[2] = biological target: T2, cathepsin L isolated from human liver (Homo sapiens, UniProt P07711); assay: Cathepsin L enzyme inhibition in vitro, kinetic fluorescence assay (selectivity vs calpain); format: biochemical; conditions: ratio of Ki values; Z-Phe-Arg-AMC substrate, pH 6.0
T2 construct: 1 nM cathepsin L—isolated from human liver (Calbiochem #219402); purchased Calbiochem 219402; host or cells: human liver (natural source)
Protocol: as §1

[3] = biological target: T3, recombinant human cathepsin S (Homo sapiens, UniProt P25774); assay: Cathepsin S enzyme inhibition in vitro, kinetic fluorescence assay (selectivity vs calpain); format: biochemical; conditions: ratio of Ki values; Z-Val-Val-Arg-AMC substrate, pH 6.0
T3 construct: purchased Calbiochem 219343; host or cells: E. coli
Protocol: as §1

[4] = biological target: T4, cathepsin B isolated from human liver (Homo sapiens, UniProt P07858); assay: Cathepsin B enzyme inhibition in vitro, kinetic fluorescence assay (selectivity vs calpain); format: biochemical; conditions: ratio of Ki values; Z-Phe-Arg-AMC substrate, pH 6.0
T4 construct: 0.25 nM cathepsin B—isolated from human liver (Calbiochem #219362); purchased Calbiochem 219362; host or cells: human liver (natural source)
Protocol: as §1

[5] = biological target: T5, calpain-1 isolated from human erythrocytes (Homo sapiens, UniProt P07384); assay: Calpain I enzyme inhibition in vitro, kinetic fluorescence assay; format: biochemical; conditions: apparent Ki calculated from IC50 by Cheng-Prussoff; 100 μM Suc-Leu-Tyr-AMC, pH 7.3, room temperature
T5 construct: 20 nM calpain-1-isolated from human erythrocytes (Calbiochem #208713); purchased Calbiochem 208713; host or cells: human erythrocytes (natural source)
T5 sequence (P07384 1-714): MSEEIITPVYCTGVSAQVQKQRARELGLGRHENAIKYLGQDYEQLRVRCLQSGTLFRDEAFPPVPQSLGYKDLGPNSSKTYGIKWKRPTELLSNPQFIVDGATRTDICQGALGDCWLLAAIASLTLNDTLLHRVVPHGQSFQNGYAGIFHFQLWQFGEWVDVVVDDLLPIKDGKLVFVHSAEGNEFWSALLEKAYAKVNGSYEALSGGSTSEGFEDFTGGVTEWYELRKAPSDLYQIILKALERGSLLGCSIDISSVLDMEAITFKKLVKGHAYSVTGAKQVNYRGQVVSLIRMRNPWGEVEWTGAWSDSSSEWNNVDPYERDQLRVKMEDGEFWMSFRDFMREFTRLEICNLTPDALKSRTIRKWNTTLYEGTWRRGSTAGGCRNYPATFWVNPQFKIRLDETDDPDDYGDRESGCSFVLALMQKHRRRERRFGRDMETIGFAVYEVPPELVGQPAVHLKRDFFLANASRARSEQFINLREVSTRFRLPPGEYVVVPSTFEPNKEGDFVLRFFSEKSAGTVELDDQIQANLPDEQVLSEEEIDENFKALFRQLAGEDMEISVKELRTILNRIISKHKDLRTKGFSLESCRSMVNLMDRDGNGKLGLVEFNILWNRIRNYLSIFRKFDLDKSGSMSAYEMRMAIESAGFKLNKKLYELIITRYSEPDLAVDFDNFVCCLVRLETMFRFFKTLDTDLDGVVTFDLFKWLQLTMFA
T5 sequence (P04632 1-268 partner): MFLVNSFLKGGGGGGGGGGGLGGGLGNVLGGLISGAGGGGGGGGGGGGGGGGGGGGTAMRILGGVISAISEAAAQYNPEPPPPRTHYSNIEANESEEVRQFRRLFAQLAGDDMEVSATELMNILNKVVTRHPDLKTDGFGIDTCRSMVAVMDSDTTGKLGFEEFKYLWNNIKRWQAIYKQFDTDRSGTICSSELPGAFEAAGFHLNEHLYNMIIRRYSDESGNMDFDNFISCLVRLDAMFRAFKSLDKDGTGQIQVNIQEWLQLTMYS
Protocol: as §1

[6] = Cytosolic clearance in human liver cytosol; format: in vitro ADME; conditions: 0.5 μM compound, 1 mg/ml human liver cytosol, 37° C., pH 7.5; read-out: human cytCL (cytosolic clearance)
[7] = Cytosolic clearance in cynomolgus monkey liver cytosol; format: in vitro ADME; conditions: female; 0.5 μM compound, 1 mg/ml cynomolgus monkey liver cytosol, 37° C., pH 7.5; read-out: cyno cytCL (cytosolic clearance)

T2 sequence (P07711 114-333): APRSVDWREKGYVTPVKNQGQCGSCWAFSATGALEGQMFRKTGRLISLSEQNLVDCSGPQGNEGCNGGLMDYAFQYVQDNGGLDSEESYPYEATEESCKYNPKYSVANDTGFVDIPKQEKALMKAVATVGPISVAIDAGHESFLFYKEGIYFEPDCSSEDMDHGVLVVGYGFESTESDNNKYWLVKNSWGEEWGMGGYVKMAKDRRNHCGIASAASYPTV
T3 sequence (P25774 115-331): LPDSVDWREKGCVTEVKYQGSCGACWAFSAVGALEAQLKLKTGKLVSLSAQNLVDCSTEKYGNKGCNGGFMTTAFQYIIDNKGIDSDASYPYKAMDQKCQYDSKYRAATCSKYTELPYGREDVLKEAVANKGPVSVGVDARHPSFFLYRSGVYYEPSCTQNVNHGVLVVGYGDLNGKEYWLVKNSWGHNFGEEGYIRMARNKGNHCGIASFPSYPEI

| Ki [5] | microsomal CLint at 0.5 μM [6] | microsomal CLint at 0.5 μM [7] | SMILES | Sel cat. K (Ki(cathepsin K)/Ki(calpain) ratio) [1] | Sel cat. L (Ki(cathepsin L)/Ki(calpain) ratio) [2] | Sel cat. S (Ki(cathepsin S)/Ki(calpain) ratio) [3] | Sel cat. B (Ki(cathepsin B)/Ki(calpain) ratio) [4] |
| --- | --- | --- | --- | --- | --- | --- | --- |
| 100 to 300 nM | < 14 µL/min/mg | < 18 µL/min/mg | O=C(NC1CC1)C(=O)C(Cc1ccccc1)NC(=O)c1cccnc1-c1csc(-c2ccccc2)n1 (stereo not drawn) [Example 13, N-(4-(Cyclopropylamino)-3,4-dioxo-1-phenylbutan-2-yl)-2-(2-phenylthiazol-4-yl)nicotinamide] | + (+ means 10≦Ki(cathepsin K)/Ki(calpain)<30) | + (+ means 30≦Ki(cathepsin L)/Ki(calpain)<50) | – | ++ (++ means a Ki(cathepsin B)/Ki(calpain) ratio of ≧30) |
| 100 to 300 nM | < 14 µL/min/mg | < 18 µL/min/mg | CONC(=O)C(=O)C(Cc1ccccc1)NC(=O)c1cccnc1-c1csc(-c2ccccc2)n1 (stereo not drawn) [Example 14, N-(4-(Methoxyamino)-3,4-dioxo-1-phenylbutan-2-yl)-2-(2-phenylthiazol-4-yl)nicotinamide] | – | – | – | – |

Second part, the compound before the results:

| SMILES | Ki [5] | microsomal CLint at 0.5 μM [6] | microsomal CLint at 0.5 μM [7] | Sel cat. K (Ki(cathepsin K)/Ki(calpain) ratio) [1] | Sel cat. L (Ki(cathepsin L)/Ki(calpain) ratio) [2] | Sel cat. S (Ki(cathepsin S)/Ki(calpain) ratio) [3] | Sel cat. B (Ki(cathepsin B)/Ki(calpain) ratio) [4] |
| --- | --- | --- | --- | --- | --- | --- | --- |
| NC(=O)C(=O)C(Cc1ccccc1)NC(=O)c1cccnc1-c1csc(-c2ccccc2Cl)n1 (stereo not drawn) [Example 8, N-(4-Amino-3,4-dioxo-1-phenylbutan-2-yl)-2-[2-(2-chlorophenyl)-1,3-thiazol-4-yl]pyridine-3-carboxamide] | ≤ 40 nM | – | – | + (+ means 10≦Ki(cathepsin K)/Ki(calpain)<30) | ++ (++ means a Ki(cathepsin L)/Ki(calpain) ratio of ≧50) | ++ (++ means a Ki(cathepsin S)/Ki(calpain) ratio of ≧100) | ++ (++ means a Ki(cathepsin B)/Ki(calpain) ratio of ≧30) |
| NC(=O)C(=O)C(Cc1ccccc1)NC(=O)c1cccnc1-c1csc(-c2ccc3ccccc3c2)n1 (stereo not drawn) [Example 9, N-(4-Amino-3,4-dioxo-1-phenylbutan-2-yl)-2-[2-(naphthalen-2-yl)-1,3-thiazol-4-yl]pyridine-3-carboxamide] | 40 to 100 nM | – | – | + (+ means 10≦Ki(cathepsin K)/Ki(calpain)<30) | ++ (++ means a Ki(cathepsin L)/Ki(calpain) ratio of ≧50) | ++ (++ means a Ki(cathepsin S)/Ki(calpain) ratio of ≧100) | ++ (++ means a Ki(cathepsin B)/Ki(calpain) ratio of ≧30) |
| NC(=O)C(=O)C(Cc1ccc(F)cc1)NC(=O)c1cccnc1-c1csc(-c2ccccc2)n1 (stereo not drawn) [Example 15, N-(4-Amino-1-(4-fluorophenyl)-3,4-dioxobutan-2-yl)-2-(2-phenylthiazol-4-yl)nicotinamide] | 40 to 100 nM | – | – | + (+ means 10≦Ki(cathepsin K)/Ki(calpain)<30) | ++ (++ means a Ki(cathepsin L)/Ki(calpain) ratio of ≧50) | ++ (++ means a Ki(cathepsin S)/Ki(calpain) ratio of ≧100) | ++ (++ means a Ki(cathepsin B)/Ki(calpain) ratio of ≧30) |
